Experiments:
Assay type in all cases: cell-based, human
59 cancer cell lines = test: NCI 59 cancer cell line panel, single dose; details: for MG% (mean growth percent): 10 μM single dose, 59 cell lines
MOLT-4 = test: NCI single-dose GI%, leukemia; details: MOLT-4, leukemia; 10.0 μM in one dose
RPMI-8226 = test: NCI single-dose GI%, leukemia; details: RPMI-8226, leukemia; 10.0 μM in one dose
SR = test: NCI single-dose GI%, leukemia; details: 10.0 μM in one dose
EKVX = test: NCI single-dose GI%, NSC lung; details: 10.0 μM in one dose
NCI-H226 = test: NCI single-dose GI%, NSC lung; details: 10.0 μM in one dose
NCI-H23 = test: NCI single-dose GI%, NSC lung; details: 10.0 μM in one dose
HCT-116 = test: NCI single-dose GI%, colon; details: HCT-116, colon; 10.0 μM in one dose
HCT-15 = test: NCI single-dose GI%, colon; details: HCT-15, colon; 10.0 μM in one dose
HT29 = test: NCI single-dose GI%, colon; details: 10.0 μM in one dose
SF-295 = test: NCI single-dose GI%, CNS; details: SF-295, CNS; 10.0 μM in one dose
SF-539 = test: NCI single-dose GI%, CNS; details: SF-539, CNS; 10.0 μM in one dose
U251 = test: NCI single-dose GI%, CNS; details: 10.0 μM in one dose
LOX IMVI = test: NCI single-dose GI%, melanoma; details: 10.0 μM in one dose
A498 = test: NCI single-dose GI%, renal; details: 10.0 μM in one dose
PC-3 = test: NCI single-dose GI%, prostate; details: PC-3, prostate; 10.0 μM in one dose
DU-145 = test: NCI single-dose GI%, prostate; details: DU-145, prostate; 10.0 μM in one dose
MDA-MB-231/ATCC = test: NCI single-dose GI%, breast; details: 10.0 μM in one dose
T-47D = test: NCI single-dose GI%, breast; details: 10.0 μM in one dose
MDA-MB-468 = test: NCI single-dose GI%, breast; details: MDA-MB-468, breast; 10.0 μM in one dose

In the case of `Cc1ccc(NC(=O)c2ccc(CN3CCN(C)CC3)cc2)cc1Nc1nccc(-c2cccnc2)n1` [Imatinib, reference compound], the “MG% (mean growth percent)” value (59 cancer cell lines) is reported as 92.62%, the “MG% (mean growth percent)” value (59 cancer cell lines; listed as imatinib) is reported as 92.62% and the “GI% range, CNS cancer” value (59 cancer cell lines; CNS cancer subpanel, 10 μM) is reported as 11–25%. For the same compound, the “GI% range, NSCLC” value (59 cancer cell lines; NSCLC subpanel, 10 μM) was 11–17%, the “GI% range against most of the cancer cell lines tested” value (59 cancer cell lines; all subpanels, 10 μM) was < 10–47% and the “GI% range, breast cancer” value (59 cancer cell lines; breast cancer subpanel, 10 μM) was 11–29%. For the same compound, the “GI% range, colon cancer” value (59 cancer cell lines; colon cancer subpanel, 10 μM) was 12–47%, the “GI% range, leukemia” value (59 cancer cell lines; leukemia subpanel, 10 μM) was 13–18% and the “GI% range, melanoma” value (59 cancer cell lines; melanoma subpanel, 10 μM) was 12–22%. The “GI% range, ovarian cancer” value (59 cancer cell lines; ovarian cancer subpanel, 10 μM) was < 10%, the “GI% range, prostate cancer” value (59 cancer cell lines; prostate cancer subpanel, 10 μM) was 11–14% and the “GI% range, renal cancer” value (59 cancer cell lines; renal cancer subpanel, 10 μM) was < 10–14%. For the same compound, the GI% (MOLT-4) was 18%, the GI% (RPMI-8226) was 12.6% and the GI% (SR) was 14.6%. For the same compound, the GI% (EKVX) was 15.7%, the GI% (NCI-H226) was 10.6% and the GI% (NCI-H23) was 17.1%. For the same compound, the GI% (HCT-116) was 18.6%, the GI% (HCT-15) was 11.5% and the GI% (HT29) was 47.1%. For the same compound, the GI% (SF-295) was 15.1%, the GI% (SF-539) was 24.5% and the GI% (U251) was 10.6%. It also gave a GI% (LOX IMVI) of 11.6%, a GI% (A498) of 13.7% and a GI% (PC-3) of 10.6%. The GI% (DU-145) was 14.4%, the GI% (MDA-MB-231/ATCC) was 11.2% and the GI% (T-47D) was 18.6%. The GI% (MDA-MB-468) was 29.1%.
